# Assay results reported in patent US20230098111A1, “COMPOSITIONS AND METHODS TO TREAT NEUROLOGICAL DISEASES” (University of Southern California, priority 2020, published 2023).
# Legend:
# C9-ALS/FTD iMNs = test: Exosome secretion from iMNs; type: cell-based, human
# Description: (A) Western blot of TSG101, TDP-43, and Neurofilament heavy chain levels in the exosome fraction secreted from control or C9-ALS/FTD iMNs upon apilimod treatment. […] Kruskal-Wallis test for B, C. N=3 biological replicates per condition, one line per genotype. (D) Number of poly(GR)-GFP+ exosomes secreted from iMNs expressing exogenous poly(GR)-GFP upon DMSO or apilimod treatment. N=4 biological replicates. Exosomes were labeled with CFSE-red dye to enable detection by FACS. Unpaired t-test.
# Blocking PIKFYVE activity induces secretory autophagy. […] Thus, secretory autophagy maintains proteostasis and prevents neuronal death in TDP-43 mouse models. PIKFYVE inhibition blocks autophagosome-lysosome fusion by […] their ratio in endosomal, lysosomal and autophagosomal membranes. One might expect this to be detrimental to ALS iMNs, which can degenerate due to misfolded protein accumulation. However, inhibition of autophagosome-lysosome fusion using PIKFYVE inhibition or bafilomycin can activate secretory autophagy to jettison misfolded proteins from cells. […] To test this hypothesis, exosomal release in human iMNs upon PIKFYVE inhibition was examined. […] Thus, PIKFYVE inhibition induces the secretion of TDP-43 and C9ORF72 DPRs from iMNs.
# Determining if PIKFYVE suppression rescues neurodegeneration through secretory autophagy. […] ASOs were designed targeting […]. It was confirmed that the ASOs suppressed RAB27A expression in iMNs.
# TDP-43 [1] = test: Nuclear:cytoplasmic TDP-43 in C9ORF72 ALS/FTD iMNs; type: cell-based, human; conditions: DMSO or apilimod
# [2] = tested on: C9ORF72 dipeptide repeat proteins; test: DPR levels in C9ORF72-BAC mice; type: in vivo
# Experimental: DRP aggregates (Poly(GR) red) accumulate in the cells (white outline) of C9-BAC mice.
# (A) Mass spectrometry analysis of Optineurin (OPTN) levels in the cerebrospinal fluide (CSF) of mice 2 hours after direct intracerebroventral injection of a vehicle control or apilimod. n=3 mice per group. The ratio of Optineurin in the CSF of apilimod:vehicle-injected mice is shown. (B) Poly(GR)+ DPR punctae in wild-type or C9ORF72 mice treated with intracerebroventricular injection of apilimod for 48 hours. Mean+/−s.e.m. Data points are individual neurons taken across 3 mice per group. One-way ANOVA. […] Unpaired t-test. (D) Pikfyve qRT-PCR of whole brain. n=3 mice per group at postnatal day 7. Unpaired t-test. (E) Gait impairment scoring in wild-type (WT) and TDP-43 homozygous mice treated with a negative control (NC) ASO or Pikfyve ASO at postnatal day 1. Mean+/−s.e.m. Unpaired t-test at each time point between the negative control and Pikfyve ASO conditions for TDP-43 mice. A score of 0 indicates no phenotype and 4 indicates the most severe phenotype. (F) Vehicle or GW4869 were delivered by intraperitoneal injection every 48 h starting from day 6 in negative control and Pikfyve ASO-treated mice. Mean+/−s.e.m. One-way ANOVA at each time point between the four conditions. *p<0.05, **p<0.01, ***p<0.001, ****p<0.0001.
# PIKFYVE inhibition rescues neurodegeneration in vivo. […] Since TARDBP overexpressing mice show motor deficits and neurodegeneration, we used TARDBP mice to test the efficacy of Pikfyve suppression.
# Determining whether PIKfyve-targeting ASOs can reverse ALS disease progression in vivo. To determine if PIKfyve-targeting ASOs can reverse ALS disease processes in vivo, can PIKfyve ASOs lower levels of C9ORF72 dipeptide repeat proteins in mice. Dipeptide repeat proteins are generated from the C9ORF72 repeat expansion by repeat-associated non-AUG-dependent translation and are neurotoxic.
# To determine if ASO-mediated Pikfyve suppression lowers C9ORF72 poly(GR) levels in mice, Pikfyve ASOs were injected into the hippocampus of adult C9ORF72-BAC mice, which harbor a C9ORF72 repeat expanded transgene and accumulate poly(GR)+ aggregates in hippocampal neurons.
# C9ORF72 DPRs = test: DPR levels in C9ORF72 iNs; type: cell-based, human
# Description: 2000 approved drugs and 1800 target-annotated tool compounds were screened on C9ORF72 FTD iNs.
# C9ORF72 FTD iNs = test: Survival of C9ORF72 FTD iNs; type: cell-based, human; conditions: DMSO or apilimod; scrambled or PIKFYVE ASOs
# Description: (§1) (A) Survival of C9ORF72 iNs with DMSO or apilimod. Log-rank test, 100 iNs per group. […] Log-rank test, 100 iNs per group. […] Mean+/−s.e.m. Kruskal-Wallis Test.
# (A, B) Survival of C9-FTD iNs treated with DMSO and Apilimod (A) or Apilimod+GW4869 (exocytosis blocker) (B). Log-rank test. 100 iNs per group. iNs quantified from 3 independent replicates per group.
# Mutations in MAPT cause FTD with tau aggregates. To determine if iNs from FTD patients display neurodegenerative phenotypes, an established method to generate cortical neurons from iPSCs by forced expression of NGN2 was used. 3 FTD patient iPSC lines harboring a MAPTV337M mutation and their CRISPR-edited isogenic controls from a published cell bank were utilized. Neurons from MAPT-mutant iPSCs display increased phosphorylated and oligomeric tau, similar to post-mortem patient tissue (FIG. 18A). […] Thus, MAPT iNs display key features of FTD with tau pathology.
# Thus, C9ORF72 iNs provide a robust model of FTD.
# PIKFYVE inhibition rescues neurodegeneration through secretory autophagy.
# TARDBP iNs = test: Survival of TARDBP FTD iNs; type: cell-based, human; conditions: DMSO or apilimod
# Description: as §1
# Thus, a collection of MAPT, C9ORF72, and TARDBP FTD lines that provide relevant models of FTD were established.
# [3] = Apilimod pharmacokinetics (CSF concentration after oral dosing); type: in vivo
# Description: All doses rescue iMN survival.
# Testing the safety of ASO-mediated suppression of PIKFYVE as a therapeutic strategy. […] While it may be possible to generate a suitable PIKFYVE inhibitor using medicinal chemistry, this is an expensive and time-consuming endeavor. In contrast to small molecules, ASOs provide a facile approach to targeting the CNS because they can be injected directly into the spinal cord, achieve sustained target engagement throughout the CNS, and are less likely to cause peripheral toxicity. Thus, ASO-mediated PIKFYVE suppression was tested as a therapeutic approach for ALS, FTD, and Alzheimer's disease.
# TDP-43 [4] = test: Nuclear:cytoplasmic TDP-43 in sporadic ALS iMNs; type: cell-based, human; conditions: DMSO or apilimod
# [5] = injection of apilimod into the hippocampus
# Experimental for control iMNs: Drug screening iMNs from both C90RF72 and sporadic ALS patients. […] Chemical screens were then performed to search for targets that can rescue the degeneration of iMNs from multiple patients. 2000 approved drugs and 1800 target-annotated tool compounds were screened on C9ORF72 ALS/FTD iMNs.
structure (smiles),measurement,setting,value
Cc1cccc(/C=N/Nc2cc(N3CCOCC3)nc(OCCc3ccccn3)n2)c1 [apilimod],control iMN survival,control iMNs,did not
same,poly(GR)-GFP+ exosomes released from iMNs,"C9-ALS/FTD iMNs; iMNs expressing poly(GR)50-GFP, FACS",released significantly more poly(GR)-GFP+ exosomes
same,TDP-43 in exosomes from C9ORF72 ALS iMNs,C9-ALS/FTD iMNs; western blot of exosome fraction,contained high levels of TDP-43
same,release of TSG101+ exosomes from iMNs,C9-ALS/FTD iMNs; western blotting,significantly increased the release of TSG101+ exosomes
same,nuclear localization of TDP-43 in C9ORF72 iMNs,TDP-43 [1],rescued the nuclear localization of TDP-43
same,levels of poly(GR) in C9ORF72-BAC mice,[2]; [5],reduced levels
same,levels of poly(PR) in C9ORF72-BAC mice,[2]; [5],reduced levels
same,DPR levels in C9ORF72-BAC mice,[2]; intracerebroventricular injection of apilimod,lowered DPR levels
same,DPR levels in C9ORF72 iNs,C9ORF72 DPRs,lowered DPR levels
same,survival of C9ORF72 iNs,C9ORF72 FTD iNs,also rescued C9ORF72
same,survival of TARDBP iNs,TARDBP iNs,potently rescued
same,metabolic stability in vivo,[3]; in vivo,poor metabolic stability in vivo
same,brain exposure,"[3]; oral dosing at 100 mg/kg, CSF concentration",does not achieve sufficient brain exposure
same,nuclear localization of TDP-43 in sporadic ALS iMNs,TDP-43 [4],rescued the nuclear localization of TDP-43
